Tests used:
Format in all cases: cell-based
[1] = tested on: lung (H460), ovarian (OV2008), prostate (DU145), and colon (HCT-116, LOVO, S1); assay: MTT cytotoxicity screening, other cancer types; details: H460, OV2008, DU145, HCT-116, LOVO, less potently than in TNBC
Experimental: The following cancer and non-cancer cell lines were used in the initial cytotoxicity screening of the TPH104 compounds: triple negative breast cancer (TNBC): MDA-MB468, MDA-MB 231, and BT-20; non-TNBC: MCF-7 and ZR-75-1; ovarian: Ov2008; prostate: DU145; colon: HCT-116, S1, and LOVO; lung: H460; normal kidney: HEK-293; normal breast: HMEC; and normal colon: CRL-1459. All cells were cultured in Dulbecco's modified Eagle medium (DMEM), supplemented with 10% fetal bovine serum (FBS), and 1% penicillin/streptomycin (P/S). Cells were allowed to grow as adherent monolayers in T25 flasks in a humidified incubator with 5% CO2 at 37° C. for a period of 24 h, unless otherwise specified for certain experiments.
The MTT assay was used to determine the cytotoxicity of all of the compounds. […] Subsequently, the plate was shaken for 2 minutes and the absorbance was measured at a wavelength of 570 nm using a SpectraMax iD3 Multi-Mode Microplate Reader (Molecular Devices, Sunnyvale, CA). The IC50 values of each compound were calculated and used to determine the selectivity ratio (IC50 in normal cells/IC50 in cancer cells) of each compound as previously described. […]
Table 3 (FIG. 30)-Cytotoxicity screening of TPH104 compounds against Colon (HCT-116, LOVO and S1), Prostate (DU145), Ovarian (Ov 2008), and Lung (H460) cancer cell lines. Cell survival was determined using MTT assay as described. […]

[2] = tested on: RAW264.7 macrophage cells; assay: Optically activated migration of RAW264.7 cells; details: 10 μM
Experimental: FIGS. 13A-13B: The in vitro effect of TPH104 on the migratory and invasive properties of MDA-MB231 TNBC cells using the wound healing assay. […] Control cells were incubated with 11-cis retinal (50 μM) for 5 minutes in the dark. A confined optical input of 445 nm was placed in-front of cells using a user-defined region of interest (ROI) and optically activated (OA) continuously in the direction of cell migration pathway for 20 minutes (OA=blue box). Cells were incubated with 10 μM of TPH104 for 30 minutes, followed by incubation with 11-cis retinal (50 μM) for 5 minutes in the dark. Scale=5 μm.
To further confirm the anti-migratory effect of TPH104, RAW264.7 macrophage cells were incubated with 10 μM TPH104 and its effect on Gai-coupled-GPCR activation was determined.

[3] = tested on: EMT and Wnt/β-catenin signaling proteins in BT-20 cells; assay: Western blot, EMT and Wnt/β-catenin proteins, BT-20
Experimental: (§1) The TNBC cells were seeded in a culture flask and incubated for 24 h. The cells were then incubated with different concentrations of the lead compounds and re-incubated for an additional 12 or 24 h. […] The bicinchoninic acid (BCA) was used to determine protein concentration in the cell extracts (G-BIOSCIENCES, St. Louis, MO, USA). […] The membrane was blocked using 5% milk in Tris-buffered Tween 20 saline for 30 minutes. The membrane was then incubated overnight with primary antibodies against Bak, Bax, Bcl-2, caspase9, caspase 3, caspase 7, PARP, cytochrome c, N-cadherin, E-cadherin, c-Myc, dishevelled segment polarity protein 3 (DVL3), dishevelled segment polarity protein 2 (DVL2), Vimentin, mitogen-activated protein kinase kinase (MAPKK also known as MEK1/2), β-catenin, low-density lipoprotein receptor-related protein 6 (LRP6), receptor-interacting protein kinase (RIP), phosphorylated RIP (p-RIP), mixed lineage kinase domain like pseudokinase(MLKL), Caspase 8, light chain 3 (LC3), lysosomal-associated membrane protein 1 (LAMP1), unc-51 like autophagy activating kinase 1 (ULK1), ras associated protein 7 (Rab7), ras associated protein 5 (Rab5), Beclin 1, mechanistic target of rapamycin (mTOR), tumor necrosis factor alpha (TNF-α), tumor necrosis factor receptor 1 (TNFR1), tumor necrosis factor receptor 2 (TNFR2), Fas-associated protein with death domain (FADD), Fas ligand (Fas), TNF-related apoptosis-inducing ligand (TRAIL), death receptor 5 (DR5), Tumor necrosis factor receptor type 1-associated DEATH domain (TRADD), receptor-interacting protein kinase 3 (RIP3), β-actin or GAPDH in 1:1000 dilution in 5% milk or 5% BSA at 4° C. Horseradish peroxidase-labeled (HRP) anti-rabbit or anti-mouse secondary antibodies (1:5,000 dilution) were added and incubated the next day for an additional 1 h. A ChemiDoc™ MP System imaging system from Bio-Rad (Hercules, CA, USA) was used for blots reading. Blots were used to obtain the protein bands, followed by quantification of the bands using image J software (NIH, Bethesda, MD, USA). All of the data were expressed as the ratio of β-actin or GAPDH.

BT-20 cells = assay: incuCyte live cell imaging of proliferation; details: 0.1, 1, 3, and 10 μM
Description: FIG. 4: Representative images of the anti-proliferative effect of TPH104 at different concentrations and different time points in BT-20 cells. The time lapse images were taken using an incuCyte live cell imaging instrument (10×). **p<0.01, ***p<0.001, ****p<0.0001 compared to the control.

[4] = tested on: LC3B-I, LC3B-II, LAMP1, Beclin-1, mTOR, ULK1, Rab7, Rab5 in BT-20 TNBC cells; assay: Western blot, autophagy markers
Experimental: as §1

Structure (SMILES): COc1ccc(O)c(/C=N/Nc2ncnc3scc(-c4ccc(C)cc4)c23)c1 [TPH104]
- proliferation of other types of cancer [1]: significantly inhibited
- migration of RAW264.7 cells [2]: significantly decreased
- expression levels of DVL3, DVL2, vimentin, and MEK1/2 ([3]; 2 μM and 5 μM): significantly decreased
- expression of N-cadherin ([3]; 2 μM and 5 μM): significantly decreased
- expression of c-Myc ([3]; 0.5, 1, 2, and 5 μM): significantly decreased
- expression of β-catenin or LRP6 ([3]; 0.5, 1, 2, and 5 μM): did not significantly alter
- expression of E-cadherin ([3]; 1, 2, or 5 μM): significantly increased
- BT-20 cell proliferation (BT-20 cells): concentration-dependent and time-dependent decrease
- expression levels of ULK1, Rab5, and Rab7 ([4]; 0.5, 1, 2, or 5 μM): significantly reduced
- LC3B-I levels ([4]; 0.5, 1, 2, or 5, 12 h): significantly increased
- LC3B-II ([4]; 0.5, 1, 2, or 5, 12 h): no significant increase
- expression of Beclin 1 ([4]; 1, 2, and 5 μM for 12 h): significantly decreased
- expression of mTOR ([4]; 1, 2, or 5 μM for 12 h): significantly increased
- expression levels of LAMP1 ([4]; 12 h): no significant change

Reference: patent US12390467B2, “Necroptosis inducers or autophagy inhibitors or a combination thereof” (The University of Toledo, priority 2018, dated 2025)
